Among the data in US11839613B2, “Pyrimidine derivatives as PGE2 receptor modulators” (IDORSIA PHARMACEUTICALS LTD, priority 2017, dated 2023) are IC50 values, retold here.

One test has as its target PTGER2 (EP2) (Homo sapiens (Human), UniProt P43116). Description: hEP2 b-arrestin assay (PathHunter HEK 293 PTGER2 b-arrestin cells). The conditions noted are these: antagonistic activity, beta-arrestin assay; read-out: hEP2 b-arr IC50. In kind it is cell-based. The protocol: Plate is pre-incubated 15 minutes at 37° C. Then five microliters of PGE2 (final conc. 5 μM) are transferred into the assay plate. Plate is incubated 120 minutes at 37° C.
(each concentration is measured in duplicate)

For another test, the target named is PTGER4 (EP4) (Homo sapiens (Human), UniProt P35408). The test can be described thus: cell-based.
Sequence of PTGER4 (EP4) (P35408 whole entry): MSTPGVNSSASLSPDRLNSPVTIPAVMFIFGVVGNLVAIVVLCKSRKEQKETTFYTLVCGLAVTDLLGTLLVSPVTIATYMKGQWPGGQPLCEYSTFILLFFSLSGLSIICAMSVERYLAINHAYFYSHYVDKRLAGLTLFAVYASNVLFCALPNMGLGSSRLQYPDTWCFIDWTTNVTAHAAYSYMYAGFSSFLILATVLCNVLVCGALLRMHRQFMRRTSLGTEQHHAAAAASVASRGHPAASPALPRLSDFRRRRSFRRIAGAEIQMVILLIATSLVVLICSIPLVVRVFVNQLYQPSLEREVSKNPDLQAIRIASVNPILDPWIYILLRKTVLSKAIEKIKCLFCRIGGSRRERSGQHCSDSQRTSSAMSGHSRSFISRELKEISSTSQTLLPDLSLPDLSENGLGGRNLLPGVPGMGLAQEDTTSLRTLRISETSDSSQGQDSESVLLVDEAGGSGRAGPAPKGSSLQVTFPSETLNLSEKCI

Sequence of PTGER2 (EP2) (P43116 whole entry): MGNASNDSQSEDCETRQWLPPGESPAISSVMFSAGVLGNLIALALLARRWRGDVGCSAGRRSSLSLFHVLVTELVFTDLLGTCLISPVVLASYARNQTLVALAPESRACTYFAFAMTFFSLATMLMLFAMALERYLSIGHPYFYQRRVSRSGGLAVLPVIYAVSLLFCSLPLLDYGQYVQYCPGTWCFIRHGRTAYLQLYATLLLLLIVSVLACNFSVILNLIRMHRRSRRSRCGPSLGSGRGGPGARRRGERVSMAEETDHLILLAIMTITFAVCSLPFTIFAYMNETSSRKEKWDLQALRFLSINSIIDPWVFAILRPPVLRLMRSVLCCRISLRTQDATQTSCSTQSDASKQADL

With `COc1cc(-c2cc(NCCc3ccc4c(c3C)OCCO4)ncn2)ccc1CC(=O)O` [Example 505, (2-Methoxy-4-{6-[2-(5-methyl-2,3-dihydro-benzo[1,4]dioxin-6-yl)-ethylamino]-pyrimidin-4-yl}-phenyl)-acetic acid], the IC50 on PTGER2 (EP2) is 0.427 µM; against PTGER4 (EP4), 0.929 µM.
On the same counts, the results for `CCCOc1cc(-c2cc(NCCc3cc4ccsc4cc3OC)ncn2)ccc1CC(=O)O` [Example 392, (4-{6-[2-(6-Methoxy-benzo[b]thiophen-5-yl)-ethylamino]-pyrimidin-4-yl}-2-propoxy-phenyl)-acetic acid] are 0.066 µM and 0.292 µM.
On the same counts, the results for `COc1cc(-c2cc(NCCc3cc(F)c4sccc4c3)ncn2)ccc1CC(=O)O` [Example 475, (4-{6-[2-(7-Fluoro-benzo[b]thiophen-5-yl)-ethylamino]-pyrimidin-4-yl}-2-methoxy-phenyl)-acetic acid] are 0.663 µM and 0.062 µM.
The like results for `CCCc1cc(-c2cc(NCCc3cc(F)c4sccc4c3)ncn2)sc1CC(=O)O` [Example 556, (5-{6-[2-(7-Fluoro-benzo[b]thiophen-5-yl)-ethylamino]-pyrimidin-4-yl}-3-propyl-thiophen-2-yl)-acetic acid] were, in that order, 0.246 µM and 0.019 µM.
Take `CCc1cc(-c2cc(NCCc3cc(F)c4sccc4c3)ncn2)cc(Cl)c1CC(=O)O` [Example 541, (2-Chloro-6-ethyl-4-{6-[2-(7-fluoro-benzo[b]thiophen-5-yl)-ethylamino]-pyrimidin-4-yl}-phenyl)-acetic acid]: the IC50 was determined as 0.604 µM at PTGER2 (EP2) and 0.088 µM at PTGER4 (EP4).
The like results for `Cc1cc(-c2cc(NCCc3cc(F)c4sccc4c3)ncn2)cc(C)c1O` [Example 532, 4-{6-[2-(7-Fluoro-benzo[b]thiophen-5-yl)-ethylamino]-pyrimidin-4-yl}-2,6-dimethyl-phenol] were, in that order, 0.293 µM and 0.069 µM.
The like results for `CCOc1cc(-c2cc(NCCc3ccc4c(c3C)OCCO4)ncn2)ccc1C(=O)O` [Example 508, 2-Ethoxy-4-{6-[2-(5-methyl-2,3-dihydro-benzo[1,4]dioxin-6-yl)-ethylamino]-pyrimidin-4-yl}-benzoic acid] were, in that order, 0.085 µM and 0.748 µM.
For the molecule `CCOc1cc(-c2cc(NCCc3ccc4sccc4c3F)ncn2)sc1C(=O)O` [Example 367, 3-Ethoxy-5-{6-[2-(4-fluoro-benzo[b]thiophen-5-yl)-ethylamino]-pyrimidin-4-yl}-thiophene-2-carboxylic acid], the IC50 at PTGER2 (EP2) turned out to be 0.007 µM; against PTGER4 (EP4) it was 0.002 µM.
The like results for `COc1cc(-c2cc(NCCc3cc(F)c4sccc4c3)ncn2)ccc1C(=O)O` [Example 497, 4-{6-[2-(7-Fluoro-benzo[b]thiophen-5-yl)-ethylamino]-pyrimidin-4-yl}-2-methoxy-benzoic acid] were, in that order, 0.449 µM and 0.443 µM.
The like results for `CCOc1cc(-c2cc(NCCc3cc4ccsc4cc3C)ncn2)cc(F)c1CC(=O)O` [Example 469, (2-Ethoxy-6-fluoro-4-{6-[2-(6-methyl-benzo[b]thiophen-5-yl)-ethylamino]-pyrimidin-4-yl}-phenyl)-acetic acid] were, in that order, 0.502 µM and 0.48 µM.
On the same counts, the results for `CCCc1cc(-c2cc(NCCc3c(OC)cc4ccccc4c3C)ncn2)ccc1C(=O)O` [Example 380, 4-{6-[2-(3-Methoxy-1-methyl-naphthalen-2-yl)-ethylamino]-pyrimidin-4-yl}-2-propyl-benzoic acid] are 0.016 µM and 0.017 µM.
Consider `COc1cc2c(c(C)c1CCNc1cc(-c3ccc(C(=O)O)c(SC)c3)ncn1)OCCO2` [Example 400, 4-{6-[2-(7-Methoxy-5-methyl-2,3-dihydro-benzo[1,4]dioxin-6-yl)-ethylamino]-pyrimidin-4-yl}-2-methylsulfanyl-benzoic acid], for which the IC50 was 0.002 µM on PTGER2 (EP2) and 0.044 µM at PTGER4 (EP4).
The like results for `COc1cc(-c2cc(NCCc3cc(F)c4sccc4c3)ncn2)ccc1CCC(=O)O` [Example 560, 3-(4-{6-[2-(7-Fluoro-benzo[b]thiophen-5-yl)-ethylamino]-pyrimidin-4-yl}-2-methoxy-phenyl)-propionic acid] were, in that order, 0.476 µM and 0.134 µM.
On the same counts, the results for `CCCc1cc(-c2cc(NCCc3cc4c(cc3C)OCCO4)ncn2)ccc1CC(=O)O` [Example 526, (4-{6-[2-(7-Methyl-2,3-dihydro-benzo[1,4]dioxin-6-yl)-ethylamino]-pyrimidin-4-yl}-2-propyl-phenyl)-acetic acid] are 0.096 µM and 0.269 µM.
Consider `COc1cc2c(cc1CCNc1cc(-c3ccc(CC(=O)O)c(CC(C)C)c3)ncn1)OCCO2` [Example 411, (2-Isobutyl-4-{6-[2-(7-methoxy-2,3-dihydro-benzo[1,4]dioxin-6-yl)-ethylamino]-pyrimidin-4-yl}-phenyl)-acetic acid], for which the IC50 on PTGER2 (EP2) was 0.097 µM; at PTGER4 (EP4), 0.031 µM.
On the same counts, the results for `CC(C)Cc1cc(-c2cc(NCCc3cc(F)c4sccc4c3)ncn2)ccc1C(=O)O` [Example 414, 4-{6-[2-(7-Fluoro-benzo[b]thiophen-5-yl)-ethylamino]-pyrimidin-4-yl}-2-isobutyl-benzoic acid] are 0.219 µM and 0.048 µM.
Consider `O=C(O)c1ccc(-c2cc(NCCc3cc(F)c4sccc4c3)ncn2)cc1` [Example 496, 4-{6-[2-(7-Fluoro-benzo[b]thiophen-5-yl)-ethylamino]-pyrimidin-4-yl}-benzoic acid], for which the IC50 on PTGER2 (EP2) is 0.588 µM; at PTGER4 (EP4), 0.908 µM.
On the same counts, the results for `CCCc1cc(-c2cc(NCCc3ccc4c(c3C)OCCO4)ncn2)ccc1CC(=O)O` [Example 504, (4-{6-[2-(5-Methyl-2,3-dihydro-benzo[1,4]dioxin-6-yl)-ethylamino]-pyrimidin-4-yl}-2-propyl-phenyl)-acetic acid] are 0.108 µM and 0.167 µM.
Regarding `CCOc1cc(-c2cc(NCCc3ccc4ccccc4c3C)ncn2)ccc1Cc1noc(=S)[nH]1` [Example 567, 3-(2-Ethoxy-4-{6-[2-(1-methyl-naphthalen-2-yl)-ethylamino]-pyrimidin-4-yl}-benzyl)-[1,2,4]oxadiazole-5(4H)-thione], the IC50 turned out to be 0.255 µM on PTGER2 (EP2) and 0.264 µM against PTGER4 (EP4).
On the same counts, the results for `CCCc1cc(-c2cc(NCCc3cc(F)c4sccc4c3)ncn2)ccc1C(=O)O` [Example 389, 4-{6-[2-(7-Fluoro-benzo[b]thiophen-5-yl)-ethylamino]-pyrimidin-4-yl}-2-propyl-benzoic acid] are 0.051 µM and 0.025 µM.
As for `O=C(O)c1ccc(-c2cc(NCCc3cc4c(cc3OC(F)F)OCCO4)ncn2)cc1OC1CCC1` [Example 494, 2-Cyclobutoxy-4-{6-[2-(7-difluoromethoxy-2,3-dihydro-benzo[1,4]dioxin-6-yl)-ethylamino]-pyrimidin-4-yl}-benzoic acid], the results for the IC50 at PTGER2 (EP2) and against PTGER4 (EP4) were 0.34 µM and 0.209 µM, respectively.
With `Cc1c(CCNc2cc(-c3ccc(CC(=O)O)c(OC(F)(F)F)c3)ncn2)ccc2c1OCCO2` [Example 509, (4-{6-[2-(5-Methyl-2,3-dihydro-benzo[1,4]dioxin-6-yl)-ethylamino]-pyrimidin-4-yl}-2-trifluoromethoxy-phenyl)-acetic acid], the IC50 at PTGER2 (EP2) was 0.029 µM; against PTGER4 (EP4) it was 0.356 µM.
The like results for `CCc1cc(-c2cc(NCCc3c(OC)cc4ccccc4c3C)ncn2)ccc1CC(=O)O` [Example 445, (2-Ethyl-4-{6-[2-(3-methoxy-1-methyl-naphthalen-2-yl)-ethylamino]-pyrimidin-4-yl}-phenyl)-acetic acid] were, in that order, 0.088 µM and 0.038 µM.
The like results for `CCc1cc(-c2cc(NCCc3ccc4c(c3C)OCCO4)ncn2)ccc1C(=O)O` [Example 515, 2-Ethyl-4-{6-[2-(5-methyl-2,3-dihydro-benzo[1,4]dioxin-6-yl)-ethylamino]-pyrimidin-4-yl}-benzoic acid] were, in that order, 0.067 µM and 0.893 µM.
On the same counts, the results for `CSc1cc(-c2cc(NCCc3cc4c(cc3OC(F)F)OCCO4)ncn2)ccc1C(=O)O` [Example 495, 4-{6-[2-(7-Difluoromethoxy-2,3-dihydro-benzo[1,4]dioxin-6-yl)-ethylamino]-pyrimidin-4-yl}-2-methylsulfanyl-benzoic acid] are 0.077 µM and 0.193 µM.
As to `CSc1cc(-c2cc(NCCc3cc(F)c4sccc4c3)ncn2)ccc1C(=O)O` [Example 364, 4-{6-[2-(7-Fluoro-benzo[b]thiophen-5-yl)-ethylamino]-pyrimidin-4-yl}-2-methylsulfanyl-benzoic acid], the IC50 at PTGER2 (EP2) was 0.151 µM; at PTGER4 (EP4), 0.052 µM.
On the same counts, the results for `CCCc1cc(-c2cc(NCCc3cc4c(cc3OCC)OCCO4)ncn2)ccc1C(C)C(=O)O` (racemic) [Example 487, rac-2-(4-{6-[2-(7-Ethoxy-2,3-dihydro-benzo[1,4]dioxin-6-yl)-ethylamino]-pyrimidin-4-yl}-2-propyl-phenyl)-propionic acid] are 0.059 µM and 0.136 µM.
The like results for `O=C(O)c1ccc(-c2cc(NCCc3cc(F)c4sccc4c3)ncn2)c2cc[nH]c12` [Example 558, 4-{6-[2-(7-Fluoro-benzo[b]thiophen-5-yl)-ethylamino]-pyrimidin-4-yl}-1H-indole-7-carboxylic acid] were, in that order, 0.684 µM and 0.539 µM.
The like results for `CCSc1cc(-c2cc(NCCc3cc(F)c4sccc4c3)ncn2)ccc1C(=O)O` [Example 533, 2-Ethylsulfanyl-4-{6-[2-(7-fluoro-benzo[b]thiophen-5-yl)-ethylamino]-pyrimidin-4-yl}-benzoic acid] were, in that order, 0.211 µM and 0.053 µM.

The IC50 is the midpoint of a concentration-inhibition curve.
